Values joined by “and” are separate entries in the source; they are usually repeats but may differ in a detail not shown here. Equal values may be shown once.
Legend:
Assay type in all cases: physicochemical
[1] = Stress test: stability in premix mixture, stored at 40° C. and 70% humidity for 4 weeks, retention of vitamin content; settings: for Retention Active ingredient content after 4-week premix test: Table 3b
Protocol: The stress test for the vitamins is configured such that specimens of 100 mg in each case of the formulation produced and 4 g of premix mixture are weighed into glass vessels. The premix mixture consists of 50% by weight of fine lime (particle size <1000 μm), 20% by weight of wheat bran (particle size <1000 μm), 20% by weight of 50% silica-supported choline chloride (particle size <1000 μm) and 10% by weight of trace element mixture (particle size 100-500 μm). The trace element mixture is composed of 46.78% by weight of FeSO4x7H2O (100-500 μm), 37.43% by weight of CuSO4x5H2O (100-500 μm), 11.79% by weight of ZnO (<500 μm), 3.61% by weight of MnO and 0.39% by weight of CoCO3. After addition of all ingredients, the specimens are mixed cautiously, with performance of the mixing mechanically or else by hand, and these specimens (A) are stored in a climate-controlled chamber at 40° C. and 70% humidity for 4 weeks. […]
For this purpose, specimens each of 100 mg of the formulation produced and 4 g of premix mixture are weighed out in glass vessels (50 mL glass vials). The premix mixture consists of 50% by weight of fine lime (particle size <1000 μm), 20% by weight of wheat bran (particle size <1000 μm), 20% by weight of 50% silica-supported choline chloride (particle size <1000 μm) and 10% by weight of trace element mixture (particle size 100-500 μm), said trace element mixture consisting of 46.78% by weight of FeSO4x7H2O (100-500 μm), 37.43% by weight of CuSO4x5H2O (100-500 μm), 11.79% by weight of ZnO (<500 μm), 3.61% by weight of MnO and 0.39% by weight of CoCO3. After addition of all ingredients, the specimens are mixed cautiously, where the mixing can be performed mechanically or else by hand, and these specimens (A) are stored in a climate-controlled chamber at 40° C. and 70% humidity for 4 weeks. An identical test is conducted with a comparative sample (B) which is of identical composition but which comprises, rather than propyl gallate, the same amount of ethoxyquin. […] The ratio of the contents after (A2), (B2) and before the storage (A1) and (B1) are used here to calculate the retention (A2/A1) or (B2/B1) of the samples. For the formulations of the invention, a quotient (A2/A1):(B2/B1) of at least 0.75 is determined here. Preferably, for the formulations of the invention, a quotient of at least 1 is obtained.
The stability of the particles thus produced was tested in a stress test. For this purpose, specimens each of 100 mg of the particles produced and 4 g of premix mixture were weighed into 50 mL glass bottles. The premix mixture consisted of 50% by weight of fine lime (particle size <1000 μm), 20% by weight of wheat bran (particle size <1000 μm), 20% by weight of 50% silica-supported choline chloride (particle size <1000 μm) and 10% by weight of trace element mixture (particle size 100-500 μm), and the trace element mixture of 46.78% by weight of FeSO4x7H2O (100-500 μm), 37.43% by weight of CuSO4x5H2O (100-500 μm), 11.79% by weight of ZnO (<500 μm), 3.61% by weight of MnO and 0.39% by weight of CoCO3. After addition of all ingredients, the specimens were carefully mixed by hand. These specimens were stored in a climate-controlled chamber at 40° C. and 70% air humidity for 4 weeks. […]

[2] = Particle size after dissolution in water by photon correlation spectroscopy (Malvern Zetasizer Nano ZSP); settings: PCS
[3] = as above; settings: PCS; for particle size / polydispersity index PDI: dry powder with propyl gallate added to the dispersion (Examples 1, 3b, 3c, 3d)
Protocol: The particle size is determined by means of a Malvern Zetasizer Nano ZSP.
30 g of citranaxanthin were suspended in 240 g of isopropanol together with 1.1 g of ascorbyl palmitate and, with setting of the pressure-limiting valve to 30 bar, mixed continuously with 390 g of isopropanol in a mixing chamber A. At a metering rate of 6 L/h on the suspension side and of 9 L/h on the solvent side, a mixing temperature of 170° C. was established in the mixing chamber A. After a residence time of 0.3 second, the molecularly disperse solution was mixed in mixing chamber B with a solution of 32 g of gelatin, 71.4 g of sucrose and 50 g of glucose syrup in 4000 g of water at a throughput rate of 100 L/h. After the solvent had been removed under reduced pressure in a distillation apparatus, an active ingredient dispersion was obtained, to which 8 g of sunflower oil and 8 g of propyl gallate were added. The propyl gallate was predissolved here in 200 mL of water and adjusted to pH 7 with NaOH. Subsequently, the dispersion was converted to a stable, water-soluble dry powder by spray drying. After dissolution in water, by photon correlation spectroscopy (PCS), a particle size of 386 nm (standard deviation 142.5, polydispersity index PDI 0.185, D(95): 660 nm) was measured (Malvern Zetasizer Nano ZSP).

[4] = Table 4b, D,L-α tocopherol 4% by wt. (in active ingredient phase) + propyl gallate 4% by wt. (in protective colloid phase)
[5] = Table 4b, mixed tocopherol 4% by wt. (in active ingredient phase) + propyl gallate 4% by wt. (in protective colloid phase)
[6] = dry powder with 4% by weight of propyl gallate and 4% by weight of butylhydroxytoluene
[7] = dry powder with 4% by weight of propyl gallate and 4% by weight of mixed tocopherol

Compound: CC(=O)/C=C/C(C)=C/C=C/C(C)=C/C=C/C=C(C)/C=C/C=C(C)/C=C/C1=C(C)CCCC1(C)C [Citranaxanthin]
- Retention Active ingredient content after 4-week test ([1]; Table 3a, propyl gallate 0% by wt., dispersion): 7.9%
- Retention Active ingredient content after 4-week test ([1]; Table 3a, propyl gallate 2% by wt., dispersion): 20.2%
- Retention Active ingredient content after 4-week test ([1]; Table 3a, propyl gallate 3% by wt., dispersion): 26.7%
- Retention Active ingredient content after 4-week test ([1]; Table 3a, propyl gallate 4% by wt., dispersion): 47.8%
- Retention Active ingredient content after 4-week test ([1]; Table 3a, propyl gallate 5% by wt., dispersion): 45.7%
- Retention Active ingredient content after 4-week test ([1]; Table 3a, propyl gallate 6% by wt., dispersion): 45.9%
- Retention Active ingredient content after 4-week test ([1]; Table 3a, propyl gallate 7% by wt., dispersion): 49.5%
- Retention Active ingredient content after 4-week test ([1]; Table 3a, propyl gallate 8% by wt., dispersion): 55.9%
- Retention Active ingredient content after 4-week test ([1]; Table 3a, propyl gallate 8.5% by wt., dispersion): 51.9%
- Retention Active ingredient content after 4-week test ([1]; Table 3a, propyl gallate 9% by wt., dispersion): 57.4%
- Retention Active ingredient content after 4-week test ([1]; Table 3a, propyl gallate 10% by wt., dispersion): 19.6%
- Retention Active ingredient content after 4-week test [1, 4]: 21.3%
- Retention Active ingredient content after 4-week test [1, 5]: 67.5%
- Retention Canthaxanthin after 4-week test ([1]; Table 5c, propyl gallate 0% by wt., mixed tocopherol 4% by wt.): 10.8%
- Retention Canthaxanthin after 4-week test ([1]; Table 5c, propyl gallate 4% by wt., mixed tocopherol 0% by wt.): 39.1%
- Retention Canthaxanthin after 4-week test ([1]; Table 5c, propyl gallate 4% by wt., mixed tocopherol 4% by wt.): 66.5%
- Retention Canthaxanthin after 4-week test ([1]; Table 5d, 4% by wt. of ethoxyquin): 79.3%
- Retention Canthaxanthin after 4-week test ([1]; Table 5d, propyl gallate 0% by wt., BHT 4% by wt.): 56.1% and 65.5% and 67.9%
- Retention Canthaxanthin after 4-week test ([1]; Table 5d, propyl gallate 4% by wt., BHT 0% by wt.): 61.2%
- Retention Canthaxanthin after 4-week test ([1]; Table 5d, propyl gallate 4% by wt., BHT 4% by wt.): 82.3%
- Retention Active ingredient content after 4-week test ([1]; propyl gallate 4% by wt. added to dispersion in solid form without pre-dissolution): 47.2% and 44.9%
- Retention Active ingredient content after 4-week test ([1]; propyl gallate 4% by wt. added to dispersion, dissolved in water pH 7): 46% and 49.4% and 47.8%
- Retention (active constituent after 4 weeks in the test) ([1]; propyl gallate 4% by wt. added to dispersion, pH of sprayed dispersion 4.5): 42.2%
- Retention (active constituent after 4 weeks in the test) ([1]; propyl gallate 4% by wt. added to dispersion, pH of sprayed dispersion 6): 39.1%
- Retention (active constituent after 4 weeks in the test) ([1]; propyl gallate 4% by wt. added to dispersion, pH of sprayed dispersion 7): 47.8%
- Retention (active constituent after 4 weeks in the test) ([1]; propyl gallate 4% by wt. added to dispersion, pH of sprayed dispersion 8): 49.4%
- Retention (active constituent after 4 weeks in the test) ([1]; propyl gallate 4% by wt. added to dispersion, pH of sprayed dispersion 9): 28.2%
- Retention (active constituent after 4 weeks in the test) ([1]; propyl gallate 4% by wt. added to dispersion, pH of sprayed dispersion 10): 36.4%
- Retention (active constituent after 4 weeks in the test) ([1]; propyl gallate 4% by wt. added to dispersion, pH of sprayed dispersion 11): 14.7%
- Retention Active ingredient content after 4-week test ([1]; propyl gallate 4% by wt. in colloid phase, pH of the colloid phase 8.5-9.5): 13.4%
- Retention Active ingredient content after 4-week test ([1]; propyl gallate 4% by wt. in colloid phase, pH preadjustment to 7, then adjustment to pH 8.5 at maximum): 44.1%
- particle size [2, 6]: 290 nm
- polydispersity index PDI [2, 6]: 0.180
- particle size [2, 7]: 280 nm
- polydispersity index PDI [2, 7]: 0.185

Compound: CC1=C(/C=C/C(C)=C/C=C/C(C)=C/C=C/C=C(C)/C=C/C=C(C)/C=C/C2=C(C)CCCC2(C)C)C(C)(C)CCC1 [β-carotene]
- particle size [3]: 262 nm
- polydispersity index PDI [3]: 0.268
- Retention Active ingredient content after 4-week test ([1]; Table 3d, ethoxyquin 4% by wt., dispersion): 22.2%
- Retention Active ingredient content after 4-week test ([1]; Table 3d, propyl gallate 4% by wt., dispersion): 30.3%

Compound: CC1=C(/C=C/C(C)=C/C=C/C(C)=C/C=C/C=C(C)/C=C/C=C(C)/C=C/C2=C(C)C(=O)CCC2(C)C)C(C)(C)CCC1=O [Canthaxanthin]
- D(95) ([3]; dry powder with propyl gallate added to the dispersion (Examples 1, 3b)): 594 nm
- particle size [3]: 290 nm
- polydispersity index PDI [3]: 0.193
- Retention Active ingredient content after 4-week premix test ([1]; propyl gallate 4%, dispersion): 61.2%
- Retention Active ingredient content after 4-week premix test ([1]; propyl gallate 6%, dispersion): 77.9%
- Retention Active ingredient content after 4-week premix test ([1]; propyl gallate 8%, dispersion): 83.3%
- Retention Active ingredient content after 4-week premix test ([1]; propyl gallate 9%, dispersion): 82.4%
- Retention Active ingredient content after 4-week premix test ([1]; propyl gallate 10%, dispersion): 69.8%
- Retention Active ingredient content after 4-week premix test ([1]; propyl gallate 12%, dispersion): 47.2%
- Retention Active ingredient content after 4-week test ([1]; Table 4a, D,L-α tocopherol 4% by wt., active ingredient phase): 45.7%
- Retention Active ingredient content after 4-week test ([1]; Table 4a, mixed tocopherol 4% by wt., active ingredient phase): 48.7%
- Retention Active ingredient content after 4-week test [1, 4]: 57.2%
- Retention Active ingredient content after 4-week test [1, 5]: 78.1%
- Retention Canthaxanthin after 4-week test ([1]; Table 5a, propyl gallate 0% by wt., mixed tocopherol 4% by wt.): 48.7%
- Retention Canthaxanthin after 4-week test ([1]; Table 5a, propyl gallate 4% by wt., mixed tocopherol 0% by wt.): 61.2%
- Retention Canthaxanthin after 4-week test ([1]; Table 5a, propyl gallate 4% by wt., mixed tocopherol 2% by wt.): 80.8%
- Retention Canthaxanthin after 4-week test ([1]; Table 5a, propyl gallate 4% by wt., mixed tocopherol 4% by wt.): 80.3%
- Retention Canthaxanthin after 4-week test ([1]; Table 5a, propyl gallate 6% by wt., mixed tocopherol 0% by wt.): 71.3%
- Retention Canthaxanthin after 4-week test ([1]; Table 5a, propyl gallate 8% by wt., mixed tocopherol 0% by wt.): 83.3%
- Retention Canthaxanthin after 4-week test ([1]; Table 5b, propyl gallate 4% by wt. (in protective colloid phase pH 7), mixed tocopherol 1% by wt. (in active ingredient phase)): 72.8%
- Retention Canthaxanthin after 4-week test ([1]; Table 5b, propyl gallate 4% by wt. (in protective colloid phase pH 7), mixed tocopherol 2% by wt. (in active ingredient phase)): 76%
- Retention Canthaxanthin after 4-week test ([1]; Table 5b, propyl gallate 4% by wt. (in protective colloid phase pH 7), mixed tocopherol 4% by wt. (in active ingredient phase)): 80.6%

Source: patent US10835456B2, “Propyl gallate-containing vitamin preparations” (BASF SE, priority 2016, dated 2020)
